Measurements: PubChem BioAssay (NCI)
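Compound exposure: 48 hours, 5 concentrations, 96-well plates. TGI: concentration producing complete growth inhibition.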 Where a SMILES comes first, the peptide text is derived from it. [ ]: non-standard residue; d: D form. The star is where a group is joined. ξ: configuration not given here. ξPhe(4-NO2) = NC(Cc1ccc([N+](=O)[O-])cc1)C(=O)O; Boc = CC(C)(C)OC(=O)*; OBn = c1ccc(CO*)cc1

Legend:
Assay in all cases: growth of human tumour cells (NCI), 48 h
T-47D breast = test system: T-47D breast
SNB-19 CNS = test system: SNB-19 CNS
HCT-15 colon = test system: HCT-15 colon
HOP-62 NSCLC = test system: HOP-62 NSCLC
DU-145 prostate = test system: DU-145 prostate
UO-31 renal = test system: UO-31 renal
SF-539 CNS = test system: SF-539 CNS
HS 578T breast = test system: HS 578T breast
HCC-2998 colon = test system: HCC-2998 colon
786-0 renal = test system: 786-0 renal
M14 melanoma = test system: M14 melanoma
BT-549 breast = test system: BT-549 breast
UACC-62 melanoma = test system: UACC-62 melanoma
LOX IMVI melanoma = test system: LOX IMVI melanoma

SMILES: COc1cc2c(cc1OC)C1C(O)C(OC)C=C3CC[N+](C)(C2)C31 (stereo not drawn)
- TGI (T-47D breast): > 100 µM
- TGI (SNB-19 CNS): > 100 µM
- TGI (HCT-15 colon): > 100 µM
- TGI (HOP-62 NSCLC): > 100 µM
- TGI (DU-145 prostate): > 100 µM
- TGI (UO-31 renal): > 100 µM
- TGI (SF-539 CNS): > 100 µM
- TGI (HS 578T breast): > 100 µM
- TGI (HCC-2998 colon): > 100 µM
- TGI (786-0 renal): > 100 µM
- TGI (M14 melanoma): > 100 µM
- TGI (BT-549 breast): > 100 µM
- TGI (UACC-62 melanoma): > 100 µM

SMILES: Cc1cc(NC(=O)C(=O)Cc2cnc3ccccc3n2)c(S(=O)(=O)O)cc1Cl
- TGI (T-47D breast): > 100 µM
- TGI (SNB-19 CNS): > 100 µM
- TGI (HCT-15 colon): > 100 µM
- TGI (DU-145 prostate): > 100 µM
- TGI (UO-31 renal): > 100 µM
- TGI (SF-539 CNS): > 100 µM
- TGI (HS 578T breast): > 100 µM
- TGI (HCC-2998 colon): > 100 µM
- TGI (LOX IMVI melanoma): > 100 µM
- TGI (786-0 renal): > 100 µM
- TGI (M14 melanoma): > 100 µM
- TGI (BT-549 breast): > 100 µM
- TGI (UACC-62 melanoma): > 100 µM

SMILES: CC(=O)O[C@H]1C(=O)[C@@]2(C)[C@H]([C@H](OC(=O)c3ccc([N+](=O)[O-])cc3)[C@]3(O)C[C@H](OC(=O)[C@H](O)[C@@H](NC(=O)c4ccccc4)c4ccccc4)C(C)=C1C3(C)C)[C@]1(OC(C)=O)CO[C@@H]1C[C@@H]2O
- TGI (T-47D breast): > 25 µM
- TGI (SNB-19 CNS): > 25 µM
- TGI (HCT-15 colon): > 25 µM
- TGI (HOP-62 NSCLC): > 25 µM
- TGI (DU-145 prostate): > 25 µM
- TGI (UO-31 renal): > 25 µM
- TGI (SF-539 CNS): > 25 µM
- TGI (HS 578T breast): > 25 µM
- TGI (HCC-2998 colon): > 25 µM
- TGI (786-0 renal): > 25 µM
- TGI (M14 melanoma): > 25 µM
- TGI (BT-549 breast): > 25 µM
- TGI (UACC-62 melanoma): > 25 µM

SMILES: CCOc1ccc(N/C(=C(/C(Cl)=C(/Cl)NCCO)[N+](=O)[O-])n2nnc3ccccc32)cc1
- TGI (T-47D breast): 37.6 µM
- TGI (SNB-19 CNS): > 100 µM
- TGI (HCT-15 colon): 43.3 µM
- TGI (HOP-62 NSCLC): > 100 µM
- TGI (DU-145 prostate): 36 µM
- TGI (UO-31 renal): 58 µM
- TGI (SF-539 CNS): 93 µM
- TGI (HS 578T breast): 38.8 µM
- TGI (HCC-2998 colon): > 100 µM
- TGI (786-0 renal): 81.7 µM
- TGI (M14 melanoma): > 100 µM
- TGI (BT-549 breast): 38.6 µM
- TGI (UACC-62 melanoma): 56.7 µM

SMILES: CC1(C)CCCCCCCCCC(C)(CCCO)C1=O (stereo not drawn)
- TGI (T-47D breast): 29.3 µM
- TGI (SNB-19 CNS): 31.9 µM
- TGI (HCT-15 colon): 31.8 µM
- TGI (HOP-62 NSCLC): 30.3 µM
- TGI (DU-145 prostate): 31 µM
- TGI (UO-31 renal): 24.4 µM
- TGI (HS 578T breast): 37.9 µM
- TGI (HCC-2998 colon): 33.7 µM
- TGI (LOX IMVI melanoma): 32.9 µM
- TGI (786-0 renal): 30.7 µM
- TGI (M14 melanoma): 27.4 µM
- TGI (BT-549 breast): 31.6 µM
- TGI (UACC-62 melanoma): 32.4 µM

SMILES: C[C@]12CC(c3ccccc3O1)C(C#N)C(=O)N2 (stereo partly drawn)
- TGI (T-47D breast): > 100 µM
- TGI (SNB-19 CNS): > 100 µM
- TGI (HCT-15 colon): > 100 µM
- TGI (HOP-62 NSCLC): > 100 µM
- TGI (DU-145 prostate): > 100 µM
- TGI (HS 578T breast): > 100 µM
- TGI (HCC-2998 colon): > 100 µM
- TGI (LOX IMVI melanoma): > 100 µM
- TGI (786-0 renal): > 100 µM
- TGI (M14 melanoma): > 100 µM
- TGI (BT-549 breast): > 100 µM
- TGI (UACC-62 melanoma): > 100 µM

SMILES: CCCCSC1=N/C(=C\c2ccco2)C(=O)N1
- TGI (T-47D breast): > 100 µM
- TGI (SNB-19 CNS): > 100 µM
- TGI (HCT-15 colon): > 100 µM
- TGI (HOP-62 NSCLC): > 100 µM
- TGI (DU-145 prostate): > 100 µM
- TGI (UO-31 renal): > 100 µM
- TGI (HS 578T breast): 88.3 µM
- TGI (HCC-2998 colon): > 100 µM
- TGI (786-0 renal): > 100 µM
- TGI (M14 melanoma): > 100 µM
- TGI (BT-549 breast): > 100 µM
- TGI (UACC-62 melanoma): > 100 µM

SMILES: CCOC(=O)c1cc(C2CCN(CC(C)CC)C2=S)c(C(=O)/C=C(/C)N)[nH]1 (stereo not drawn)
- TGI (T-47D breast): > 50 µM
- TGI (SNB-19 CNS): > 50 µM
- TGI (HCT-15 colon): > 50 µM
- TGI (HOP-62 NSCLC): > 50 µM
- TGI (DU-145 prostate): > 50 µM
- TGI (UO-31 renal): > 50 µM
- TGI (SF-539 CNS): > 50 µM
- TGI (HS 578T breast): > 50 µM
- TGI (LOX IMVI melanoma): > 50 µM
- TGI (786-0 renal): > 50 µM
- TGI (M14 melanoma): > 50 µM
- TGI (BT-549 breast): > 50 µM
- TGI (UACC-62 melanoma): > 50 µM

SMILES: CC(C)(C)OC(=O)NC(Cc1ccc([N+](=O)[O-])cc1)C(=O)NCC(=O)OCc1ccccc1 (stereo not drawn) (Boc-[ξPhe(4-NO2)]-Gly-OBn)
- TGI (T-47D breast): > 100 µM
- TGI (SNB-19 CNS): > 100 µM
- TGI (HCT-15 colon): 41.9 µM
- TGI (HOP-62 NSCLC): 36.7 µM
- TGI (DU-145 prostate): 81.8 µM
- TGI (UO-31 renal): 45.4 µM
- TGI (HS 578T breast): 54 µM
- TGI (HCC-2998 colon): 42 µM
- TGI (LOX IMVI melanoma): 31.2 µM
- TGI (786-0 renal): 33.8 µM
- TGI (M14 melanoma): 37.6 µM
- TGI (BT-549 breast): 59.6 µM
- TGI (UACC-62 melanoma): 32 µM

SMILES: CC1=CC2(O)OC3(CC2=C(C)C)C(C)CCC13 (stereo not drawn)
- TGI (T-47D breast): > 100 µM
- TGI (SNB-19 CNS): > 100 µM
- TGI (HCT-15 colon): > 100 µM
- TGI (HOP-62 NSCLC): > 100 µM
- TGI (DU-145 prostate): > 100 µM
- TGI (UO-31 renal): > 100 µM
- TGI (SF-539 CNS): > 100 µM
- TGI (HS 578T breast): > 100 µM
- TGI (LOX IMVI melanoma): > 100 µM
- TGI (786-0 renal): > 100 µM
- TGI (M14 melanoma): > 100 µM
- TGI (BT-549 breast): > 100 µM
- TGI (UACC-62 melanoma): > 100 µM

SMILES: COc1ccc(C2CC(=O)Oc3ccccc3O2)cc1 (stereo not drawn)
- TGI (T-47D breast): > 100 µM
- TGI (SNB-19 CNS): > 100 µM
- TGI (HCT-15 colon): > 100 µM
- TGI (HOP-62 NSCLC): > 100 µM
- TGI (DU-145 prostate): > 100 µM
- TGI (UO-31 renal): > 100 µM
- TGI (SF-539 CNS): > 100 µM
- TGI (HS 578T breast): > 100 µM
- TGI (HCC-2998 colon): > 100 µM
- TGI (786-0 renal): > 100 µM
- TGI (BT-549 breast): > 100 µM
- TGI (UACC-62 melanoma): > 100 µM

SMILES: CC(=N/NC(=S)Nc1c(C)n(C)n(-c2ccccc2)c1=O)/C(C)=N\NC(=S)Nc1c(C)n(C)n(-c2ccccc2)c1=O
- TGI (T-47D breast): > 100 µM
- TGI (SNB-19 CNS): > 100 µM
- TGI (HCT-15 colon): > 100 µM
- TGI (HOP-62 NSCLC): > 100 µM
- TGI (DU-145 prostate): > 100 µM
- TGI (UO-31 renal): > 100 µM
- TGI (SF-539 CNS): > 100 µM
- TGI (HS 578T breast): > 100 µM
- TGI (HCC-2998 colon): > 100 µM
- TGI (786-0 renal): > 100 µM
- TGI (M14 melanoma): > 100 µM
- TGI (BT-549 breast): > 100 µM
- TGI (UACC-62 melanoma): > 100 µM

SMILES: Cn1cc2c(=O)n3ncn(-c4ccc(Br)cc4)c3nc2n1
- TGI (T-47D breast): > 100 µM
- TGI (SNB-19 CNS): > 100 µM
- TGI (HCT-15 colon): > 100 µM
- TGI (DU-145 prostate): > 100 µM
- TGI (UO-31 renal): > 100 µM
- TGI (SF-539 CNS): > 100 µM
- TGI (HS 578T breast): > 100 µM
- TGI (HCC-2998 colon): > 100 µM
- TGI (786-0 renal): > 100 µM
- TGI (M14 melanoma): > 100 µM
- TGI (BT-549 breast): > 100 µM
- TGI (UACC-62 melanoma): > 100 µM

SMILES: Cc1cn(CC2=NCC(C)(C)CN2)c(=O)[nH]c1=O
- TGI (T-47D breast): > 100 µM
- TGI (SNB-19 CNS): > 100 µM
- TGI (HCT-15 colon): > 100 µM
- TGI (HOP-62 NSCLC): > 100 µM
- TGI (DU-145 prostate): > 100 µM
- TGI (UO-31 renal): > 100 µM
- TGI (HS 578T breast): > 100 µM
- TGI (HCC-2998 colon): > 100 µM
- TGI (LOX IMVI melanoma): > 100 µM
- TGI (786-0 renal): > 100 µM
- TGI (M14 melanoma): > 100 µM
- TGI (BT-549 breast): > 100 µM
- TGI (UACC-62 melanoma): > 100 µM
